Measured values: ChEMBL document CHEMBL1143311, “Structure-activity relationship and studies on the molecular mechanism of leishmanicidal N,C-coupled arylisoquinolinium salts” (J Med Chem, 2009)
Calls of active or inactive are those of the source. The rule behind the calls is not given here.

Key:
[1] = tested on: Leishmania major; experiment: Antileishmanial activity against Leishmania major MHOM/IL/81/FE/BNI promastigotes by alamar blue assay; assay type: functional, organism-based
[2] = Antiproliferative activity against mouse J774.1 cells after 48 hrs by alamar blue assay; assay type: cell-based
[3] = Selectivity index, ratio of IC50 for mouse J774.1 cells to IC50 for Leishmania major MHOM/IL/81/FE/BNI promastigotes; assay type: toxicity; details: for selectivity ratio: J774.1 cells, read-out: Ratio IC50
[4] = target: Albumin (Bos taurus, UniProt P02769); experiment: Binding affinity to bovine serum albumin by ultrafiltration method; assay type: ADME; details: cattle; for fraction unbound: bovine serum albumin, read-out: PPB (converted)
[5] = target: Cytochrome P450 2C9 (Homo sapiens, UniProt P11712); experiment: Inhibition of human CYP2C9 at 100 uM by LC/ESI-MS analysis; assay type: ADME
[6] = target: Cytochrome P450 2C19 (Homo sapiens, UniProt P33261); experiment: Inhibition of human CYP2C19 at 100 uM by LC/ESI-MS analysis; assay type: ADME
[7] = target: T1, Cytochrome P450 2D6 (Homo sapiens, UniProt P10635); experiment: Inhibition of human CYP2D6 at 1 to 100 uM by LC/ESI-MS analysis; assay type: ADME
[8] = target: Cytochrome P450 3A4 (Homo sapiens, UniProt P08684); experiment: Inhibition of human CYP3A4 at 100 uM by LC/ESI-MS analysis; assay type: ADME
[9] = target: T1, Cytochrome P450 2D6; experiment: Inhibition of human CYP2D6 expressed in baculovirus-infected insect cell system; assay type: ADME
[10] = target: T1, Cytochrome P450 2D6; experiment: Inhibition of human CYP2D6 by Lineweaver-Burke plot; assay type: ADME
[11] = Cytotoxicity against BALB/c mouse DC after 48 hrs by alamar blue assay
[12] = Cytotoxicity against mouse NIH/3T3 after 48 hrs by alamar blue assay; assay type: cell-based; details: NIH3T3, 48 h
[13] = Cytotoxicity against BALB/c mouse peritoneal macrophages after 48 hrs by alamar blue assay; assay type: cell-based; details: Macrophage
[14] = tested on: Leishmania major; experiment: Antileishmanial activity against Leishmania major MHOM/IL/81/FE/BNI promastigotes infected in BALB/c mouse peritoneal macrophages assessed as decrease in infection rate after 48 hrs by fluorescence microscopy; assay type: functional, organism-based
[15] = Ratio of IC50 for BALB/c mouse peritoneal macrophages to EC50 for Leishmania major MHOM/IL/81/FE/BNI promastigotes
[16] = tested on: Macrophage; experiment: Reduction of IL6 production in LPS-stimulated BALB/c mouse peritoneal macrophages infected with Leishmania major MHOM/IL/81/FE/BNI promastigotes at 3 uM after 24 hrs by sandwich ELISA; assay type: functional, cell-based
[17] = tested on: Macrophage; experiment: Reduction of IL6 production in IFN-gamma-stimulated BALB/c mouse peritoneal macrophages infected with Leishmania major MHOM/IL/81/FE/BNI promastigotes at 3 uM after 24 hrs by sandwich ELISA; assay type: functional, cell-based
[18] = tested on: Macrophage; experiment: Reduction of TNFalpha production in LPS-stimulated BALB/c mouse peritoneal macrophages infected with Leishmania major MHOM/IL/81/FE/BNI promastigotes at 3 uM after 24 hrs by sandwich ELISA; assay type: functional, cell-based
[19] = tested on: Macrophage; experiment: Reduction of TNFalpha production in IFN-gamma-stimulated BALB/c mouse peritoneal macrophages infected with Leishmania major MHOM/IL/81/FE/BNI promastigotes at 3 uM after 24 hrs by sandwich ELISA; assay type: functional, cell-based
[20] = tested on: Macrophage; experiment: Decrease in IL10 secretion in IFN-gamma-stimulated BALB/c mouse peritoneal macrophages infected with Leishmania major MHOM/IL/81/FE/BNI promastigotes at 3 uM after 24 hrs by sandwich ELISA; assay type: functional, cell-based
[21] = tested on: Macrophage; experiment: Decrease in IL10 secretion in LPS-stimulated BALB/c mouse peritoneal macrophages infected with Leishmania major MHOM/IL/81/FE/BNI promastigotes at 3 uM after 24 hrs by sandwich ELISA; assay type: functional, cell-based
[22] = tested on: Macrophage; experiment: Increase in nitric oxide production in LPS-stimulated BALB/c mouse peritoneal macrophages infected with Leishmania major MHOM/IL/81/FE/BNI promastigotes at 3 uM after 48 hrs by […]; assay type: functional, cell-based
[23] = tested on: Leishmania major; experiment: Antileishmanial activity against Leishmania major MHOM/IL/81/FE/BNI promastigotes infected in BALB/c mouse peritoneal macrophages assessed as decrease in infection rate after 48 hrs by fluorescence microscopy in presence of interferon-gamma; assay type: functional, organism-based

Cytochrome P450 2C9, sequence (P11712 whole entry): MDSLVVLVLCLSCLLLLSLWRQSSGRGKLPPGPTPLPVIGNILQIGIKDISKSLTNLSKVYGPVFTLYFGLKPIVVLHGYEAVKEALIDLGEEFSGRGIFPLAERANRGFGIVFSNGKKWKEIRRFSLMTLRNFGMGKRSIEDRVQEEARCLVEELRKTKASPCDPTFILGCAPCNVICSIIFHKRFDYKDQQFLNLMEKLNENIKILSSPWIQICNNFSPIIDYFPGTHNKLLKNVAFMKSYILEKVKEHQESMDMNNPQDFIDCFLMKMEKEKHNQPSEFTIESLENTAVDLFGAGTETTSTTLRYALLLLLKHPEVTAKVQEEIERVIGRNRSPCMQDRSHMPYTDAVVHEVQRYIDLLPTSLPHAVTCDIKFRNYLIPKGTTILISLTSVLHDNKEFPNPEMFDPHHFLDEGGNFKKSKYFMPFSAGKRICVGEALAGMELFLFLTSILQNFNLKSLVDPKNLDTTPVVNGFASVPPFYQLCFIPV
T1 sequence (P10635 whole entry): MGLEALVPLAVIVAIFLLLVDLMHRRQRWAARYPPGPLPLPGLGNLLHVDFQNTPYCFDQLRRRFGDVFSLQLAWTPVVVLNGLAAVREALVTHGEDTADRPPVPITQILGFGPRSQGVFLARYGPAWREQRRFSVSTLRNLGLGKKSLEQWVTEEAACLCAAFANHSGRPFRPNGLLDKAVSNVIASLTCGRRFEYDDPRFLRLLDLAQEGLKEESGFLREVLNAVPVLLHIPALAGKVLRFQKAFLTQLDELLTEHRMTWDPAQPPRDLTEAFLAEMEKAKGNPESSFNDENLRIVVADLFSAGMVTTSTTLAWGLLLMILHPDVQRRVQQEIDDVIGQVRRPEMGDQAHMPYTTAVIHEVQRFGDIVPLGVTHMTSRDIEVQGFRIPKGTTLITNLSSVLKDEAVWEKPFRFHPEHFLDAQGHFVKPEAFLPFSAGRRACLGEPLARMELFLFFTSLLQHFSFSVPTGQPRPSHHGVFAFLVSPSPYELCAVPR
Cytochrome P450 2C19, sequence (P33261 whole entry): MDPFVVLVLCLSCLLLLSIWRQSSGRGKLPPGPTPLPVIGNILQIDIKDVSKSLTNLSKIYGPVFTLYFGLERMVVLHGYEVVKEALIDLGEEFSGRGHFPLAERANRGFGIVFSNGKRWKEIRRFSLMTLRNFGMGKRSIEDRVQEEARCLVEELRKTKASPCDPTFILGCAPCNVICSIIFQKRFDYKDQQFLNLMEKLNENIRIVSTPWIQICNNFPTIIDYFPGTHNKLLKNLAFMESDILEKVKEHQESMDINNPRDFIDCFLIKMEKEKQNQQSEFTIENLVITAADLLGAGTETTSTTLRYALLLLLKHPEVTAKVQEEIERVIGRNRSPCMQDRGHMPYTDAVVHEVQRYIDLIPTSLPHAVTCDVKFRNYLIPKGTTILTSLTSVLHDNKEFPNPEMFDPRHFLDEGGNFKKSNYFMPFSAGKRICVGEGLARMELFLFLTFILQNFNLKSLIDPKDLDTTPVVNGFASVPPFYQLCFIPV
Albumin, sequence (P02769 whole entry): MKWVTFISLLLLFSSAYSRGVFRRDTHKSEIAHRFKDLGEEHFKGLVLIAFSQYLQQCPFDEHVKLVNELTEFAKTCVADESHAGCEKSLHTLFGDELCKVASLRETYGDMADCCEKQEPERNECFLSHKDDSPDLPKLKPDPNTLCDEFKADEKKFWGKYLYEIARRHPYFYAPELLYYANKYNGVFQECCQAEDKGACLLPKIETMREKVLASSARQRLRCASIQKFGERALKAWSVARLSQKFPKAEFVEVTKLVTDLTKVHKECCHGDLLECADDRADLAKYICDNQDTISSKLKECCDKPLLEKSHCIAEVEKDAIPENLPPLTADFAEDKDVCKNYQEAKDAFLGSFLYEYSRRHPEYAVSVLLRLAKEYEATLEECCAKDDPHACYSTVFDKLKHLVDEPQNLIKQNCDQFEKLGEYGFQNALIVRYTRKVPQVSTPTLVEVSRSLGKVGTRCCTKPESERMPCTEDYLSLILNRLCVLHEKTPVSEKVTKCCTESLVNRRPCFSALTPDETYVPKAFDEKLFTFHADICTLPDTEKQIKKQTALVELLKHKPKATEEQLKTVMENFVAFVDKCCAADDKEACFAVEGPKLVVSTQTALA
Cytochrome P450 3A4, sequence (P08684 whole entry): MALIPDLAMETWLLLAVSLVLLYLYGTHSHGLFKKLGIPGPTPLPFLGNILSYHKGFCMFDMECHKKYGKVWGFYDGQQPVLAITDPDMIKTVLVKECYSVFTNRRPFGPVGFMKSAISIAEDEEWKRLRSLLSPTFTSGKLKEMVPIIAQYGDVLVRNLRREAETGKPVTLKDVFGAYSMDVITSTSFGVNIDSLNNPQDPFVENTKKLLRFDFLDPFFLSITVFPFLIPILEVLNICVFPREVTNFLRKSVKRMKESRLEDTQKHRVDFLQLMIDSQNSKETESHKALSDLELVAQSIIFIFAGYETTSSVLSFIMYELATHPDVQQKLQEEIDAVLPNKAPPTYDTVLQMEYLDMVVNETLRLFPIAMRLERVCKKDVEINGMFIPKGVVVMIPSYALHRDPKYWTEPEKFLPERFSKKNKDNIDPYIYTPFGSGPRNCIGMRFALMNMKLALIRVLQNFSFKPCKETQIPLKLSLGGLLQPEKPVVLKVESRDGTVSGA

**Q.** For COc1cc(OC)c2c(C)[n+](-c3cccc4ccccc34)c(C)cc2c1, which IC50 ([1]; Leishmania major) is on record?
**A.** 1.63 µM

**Q.** And the IC50 ([2]; Mus musculus, J774.1, 48 h)?
**A.** 4.29 µM

**Q.** What about the selectivity ratio [3] of the same compound?
**A.** 2.63

**Q.** With COc1cc(OC)c2c(C)[n+](-c3cccc4cc5ccccc5cc34)c(C)cc2c1.F[B-](F)(F)F as the compound, how does the IC50 [1] read?
**A.** 0.72 µM

**Q.** What about the IC50 ([2]; j774.1) of the same compound?
**A.** 2.95 µM

**Q.** What about the “Ratio IC50” value [3] of the same compound?
**A.** < 1

**Q.** What does the source list for COc1cc(OC)c2c(C)[n+](-c3ccc(Cl)cc3)c(C)cc2c1?
**A.** IC50 ([1]; Leishmania major): 18.9 µM; IC50 ([2]; Mus musculus, J774.1, 48 h): 3.05 µM; selectivity ratio [3]: < 1

**Q.** What does the source list for COc1cc(OC)c2c(C)[n+](-c3ccc(OC(C)=O)cc3)c(C)cc2c1?
**A.** IC50 ([1]; Leishmania major): > 100 µM; IC50 ([2]; Mus musculus, J774.1, 48 h): > 100 µM

**Q.** For COc1cc(OC)c2c(C)[n+](-c3cccc4c3C(=O)c3ccccc3C4=O)c(C)cc2c1, which IC50 ([1]; Leishmania major) is on record?
**A.** > 100 µM

**Q.** And the IC50 ([2]; Mus musculus, J774.1, 48 h)?
**A.** > 100 µM

**Q.** Which IC50 ([1]; Leishmania major) does the source give for COc1cc2c(c(OC)c1)C(C)N(c1ccc(OC)c3c(OC)cc(C)cc13)[C@H](C)C2 (mixture of isomers) here?
**A.** 66.7 µM

**Q.** What about the IC50 ([2]; Mus musculus, J774.1, 48 h) of the same compound?
**A.** > 100 µM

**Q.** For COc1cc(OC)c2c(C)[n+](-c3ccc4scnc4c3)c(C)cc2c1, which IC50 ([1]; Leishmania major) is on record?
**A.** > 100 µM

**Q.** What about the IC50 ([2]; Mus musculus, J774.1, 48 h) of the same compound?
**A.** 63.2 µM

**Q.** And the fraction unbound [4]?
**A.** 0.671

**Q.** Which results are given for COc1cc(OC)c2c(C)[n+](-c3ccc(C(C)C)cc3C(C)C)c(C)cc2c1?
**A.** IC50 ([1]; Leishmania major): 0.54 µM; IC50 ([2]; Mus musculus, J774.1, 48 h): 2.25 µM; selectivity ratio [3]: 4.17; fraction unbound [4]: 0.416

**Q.** With C=C[C@H]1C[N@@]2CC[C@H]1C[C@@H]2[C@@H](O)c1ccnc2ccc(OC)cc12 [QUINIDINE] as the compound, how does the Activity [5] read?
**A.** Active

**Q.** What about the Activity [6] of the same compound?
**A.** Active

**Q.** Which results are given for COc1cc2c(c(OC)c1)C(C)N(c1ccc(OC)c3c(OC)cc(C)cc13)[C@@H](C)C2 (mixture of isomers)?
**A.** IC50 ([1]; Leishmania major): 64.8 µM; IC50 ([2]; Mus musculus, J774.1, 48 h): > 100 µM

**Q.** With COc1cc(OC)c2c(C)[n+](-c3ccc4ncccc4c3)c(C)cc2c1 as the compound, how does the IC50 ([1]; Leishmania major) read?
**A.** > 100 µM

**Q.** And the IC50 ([2]; Mus musculus, J774.1, 48 h)?
**A.** > 100 µM

**Q.** Which Activity ([4]; isolated protein) does the source give for COc1cc(OC)c2c(C)[n+](-c3cccc4ccccc34)c(C)cc2c1.[O-][Cl+3]([O-])([O-])[O-] here?
**A.** Active

**Q.** What about the Activity [7] of the same compound?
**A.** Active

**Q.** And the Activity [5]?
**A.** Active

**Q.** And the Activity [6]?
**A.** Active

**Q.** What about the Activity [8] of the same compound?
**A.** Active

**Q.** What about the IC50 [9] of the same compound?
**A.** 0.9 µM

**Q.** What about the Ki [10] of the same compound?
**A.** 0.45 µM

**Q.** What does the source list for COc1cc(OC)c2c(C)[n+](-c3ccc(O)cc3)c(C)cc2c1?
**A.** IC50 ([1]; Leishmania major): 15.9 µM; IC50 ([2]; Mus musculus, J774.1, 48 h): > 100 µM

**Q.** Which IC50 ([1]; Leishmania major) does the source give for COc1cc(OC)c2c(C)[n+](-c3ccc(C)cc3C)c(C)cc2c1 here?
**A.** 3.28 µM

**Q.** And the IC50 ([2]; Mus musculus, J774.1, 48 h)?
**A.** 4.07 µM

**Q.** What about the selectivity ratio [3] of the same compound?
**A.** 1.24

**Q.** For COc1cc(OC)c2c(C)[n+](-c3ccc(Br)cc3)c(C)cc2c1, which IC50 ([1]; Leishmania major) is on record?
**A.** 19.7 µM

**Q.** What about the IC50 ([2]; Mus musculus, J774.1, 48 h) of the same compound?
**A.** 2.97 µM

**Q.** And the selectivity ratio [3]?
**A.** < 1

**Q.** With COc1cc(OC)c2c(C)[n+](-c3ccc(C)cc3)c(C)cc2c1.F[B-](F)(F)F as the compound, how does the IC50 ([1]; Leishmania major) read?
**A.** 2.64 µM

**Q.** And the IC50 ([2]; Mus musculus, J774.1, 48 h)?
**A.** 14.6 µM

**Q.** And the selectivity ratio [3]?
**A.** 5.55

**Q.** And the IC50 [11]?
**A.** 24 µM

**Q.** What about the IC50 [12] of the same compound?
**A.** 49.8 µM

**Q.** What about the IC50 [13] of the same compound?
**A.** 12.8 µM

**Q.** What about the EC50 [14] of the same compound?
**A.** 0.092 µM

**Q.** What about the “Ratio IC50/EC50” value [15] of the same compound?
**A.** 138

**Q.** And the fraction unbound [4]?
**A.** 0.441

**Q.** What about the Activity [16] of the same compound?
**A.** Active

**Q.** And the Activity [17]?
**A.** Active

**Q.** What about the Activity [18] of the same compound?
**A.** Active

**Q.** What about the Activity [19] of the same compound?
**A.** Active

**Q.** What about the Activity [20] of the same compound?
**A.** inactive

**Q.** And the Activity [21]?
**A.** inactive

**Q.** What about the Activity [22] of the same compound?
**A.** inactive

**Q.** What about the Activity [7] of the same compound?
**A.** Active

**Q.** What about the Activity [5] of the same compound?
**A.** Active

**Q.** And the Activity [6]?
**A.** Active

**Q.** And the Activity [8]?
**A.** Active

**Q.** And the IC50 [9]?
**A.** 0.0561 µM

**Q.** And the Ki [10]?
**A.** 0.0281 µM

**Q.** And the Activity [23]?
**A.** Active
